# Measurements from PubChem BioAssay (NCI).
#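 How tested: cells in 96-well plates exposed to compound for 48 hours at five concentrations. At the TGI there is no net growth.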
# Experiments:
# Test in all cases: NCI-60 cell line screen, 48 h
# [1] = system: HT29 colon
# [2] = system: MDA-MB-435
# [3] = system: A549 NSCLC
# [4] = system: SK-MEL-2 melanoma
# [5] = system: UACC-62 melanoma
# [6] = system: UO-31 renal
# [7] = system: K-562 leukemia
# [8] = system: OVCAR-3 ovarian
# [9] = system: EKVX NSCLC
# [10] = system: TK-10 renal
# [11] = system: U251 CNS
# [12] = system: SF-539 CNS
# [13] = system: OVCAR-8 ovarian
# [14] = system: HCT-15 colon
# [15] = system: NCI-H226 lung
# [16] = system: OVCAR-4 ovarian
# [17] = system: UACC-257 melanoma
# [18] = system: T-47D breast
# [19] = system: BT-549 breast
# [20] = system: CAKI-1 renal
# [21] = system: NCI-H460 lung
# [22] = system: COLO 205 colon
# [23] = system: MOLT-4 leukemia
# [24] = system: HOP-92 NSCLC
# [25] = system: 786-0 renal
# [26] = system: PC-3 prostate
# [27] = system: SNB-19 CNS
# [28] = system: A498 renal
# [29] = system: SR leukemia
# [30] = system: SF-295 CNS
# [31] = system: MCF7 breast
# [32] = system: CCRF-CEM leukemia
# [33] = system: MDA-N
# [34] = system: HCC-2998 colon
# [35] = system: SK-OV-3 ovarian
# [36] = system: LOX IMVI melanoma
# [37] = system: SN12C renal
# [38] = system: HCT-116 colon
# [39] = system: HOP-62 NSCLC
# [40] = system: SW-620 colon
# [41] = system: OVCAR-5 ovarian
# [42] = system: MALME-3M melanoma
# [43] = system: SK-MEL-5 melanoma
# [44] = system: NCI/ADR-RES ovarian
# [45] = system: M14 melanoma
# [46] = system: MDA-MB-231 breast
# [47] = system: KM12 colon
# [48] = system: ACHN renal
# [49] = system: NCI-H522 lung
# [50] = system: RPMI-8226 leukemia
# [51] = system: NCI-H23 lung
# [52] = system: IGROV1 ovarian
# [53] = system: RXF 393 renal
# [54] = system: HL-60(TB) leukemia
# [55] = system: SNB-75 CNS
# [56] = system: DU-145 prostate
# [57] = system: SF-268 CNS
# [58] = system: HS 578T breast
# [59] = system: SK-MEL-28 melanoma
smiles,measurement,setting,value
CCOC(=O)Nn1cnnc1C,TGI,[1],> 100 µM
same,TGI,[2],> 100 µM
same,TGI,[3],> 100 µM
same,TGI,[4],> 100 µM
same,TGI,[5],> 100 µM
same,TGI,[6],> 100 µM
same,TGI,[7],> 100 µM
same,TGI,[8],> 100 µM
same,TGI,[9],> 100 µM
same,TGI,[10],> 100 µM
same,TGI,[11],> 100 µM
same,TGI,[12],> 100 µM
same,TGI,[13],> 100 µM
same,TGI,[14],> 100 µM
same,TGI,[15],> 100 µM
same,TGI,[16],> 100 µM
same,TGI,[17],> 100 µM
same,TGI,[18],> 100 µM
same,TGI,[19],> 100 µM
same,TGI,[20],> 100 µM
same,TGI,[21],> 100 µM
same,TGI,[22],> 100 µM
same,TGI,[23],> 100 µM
same,TGI,[24],> 100 µM
same,TGI,[25],> 100 µM
same,TGI,[26],> 100 µM
same,TGI,[27],> 100 µM
same,TGI,[28],> 100 µM
same,TGI,[29],> 100 µM
same,TGI,[30],> 100 µM
same,TGI,[31],> 100 µM
same,TGI,[32],> 100 µM
same,TGI,[33],> 100 µM
same,TGI,[34],> 100 µM
same,TGI,[35],> 100 µM
same,TGI,[36],> 100 µM
same,TGI,[37],> 100 µM
same,TGI,[38],> 100 µM
same,TGI,[39],> 100 µM
same,TGI,[40],> 100 µM
same,TGI,[41],> 100 µM
same,TGI,[42],> 100 µM
same,TGI,[43],> 100 µM
same,TGI,[44],> 100 µM
same,TGI,[45],> 100 µM
same,TGI,[46],> 100 µM
same,TGI,[47],> 100 µM
same,TGI,[48],> 100 µM
same,TGI,[49],> 100 µM
same,TGI,[50],> 100 µM
same,TGI,[51],> 100 µM
same,TGI,[52],> 100 µM
same,TGI,[53],> 100 µM
Cc1nc2nn[nH]n2c(=O)c1CCO,TGI,[1],> 100 µM
same,TGI,[2],> 100 µM
same,TGI,[3],> 100 µM
same,TGI,[4],> 100 µM
same,TGI,[5],> 100 µM
same,TGI,[6],> 100 µM
same,TGI,[7],> 100 µM
same,TGI,[8],> 100 µM
same,TGI,[54],> 100 µM
same,TGI,[9],> 100 µM
same,TGI,[55],85.7 µM
same,TGI,[56],> 100 µM
same,TGI,[10],> 100 µM
same,TGI,[11],> 100 µM
same,TGI,[12],> 100 µM
same,TGI,[13],> 100 µM
same,TGI,[14],> 100 µM
same,TGI,[15],> 100 µM
same,TGI,[16],> 100 µM
same,TGI,[17],> 100 µM
same,TGI,[18],> 100 µM
same,TGI,[20],> 100 µM
same,TGI,[21],> 100 µM
same,TGI,[22],> 100 µM
same,TGI,[23],> 100 µM
same,TGI,[24],> 100 µM
same,TGI,[25],> 100 µM
same,TGI,[26],> 100 µM
same,TGI,[27],> 100 µM
same,TGI,[57],> 100 µM
same,TGI,[28],> 100 µM
same,TGI,[29],> 100 µM
same,TGI,[30],> 100 µM
same,TGI,[31],> 100 µM
same,TGI,[32],> 100 µM
same,TGI,[33],> 100 µM
same,TGI,[34],> 100 µM
same,TGI,[35],> 100 µM
same,TGI,[36],> 100 µM
same,TGI,[37],> 100 µM
same,TGI,[58],> 100 µM
same,TGI,[59],> 100 µM
same,TGI,[38],> 100 µM
same,TGI,[39],> 100 µM
same,TGI,[40],> 100 µM
same,TGI,[41],> 100 µM
same,TGI,[42],> 100 µM
same,TGI,[43],> 100 µM
same,TGI,[44],> 100 µM
same,TGI,[45],> 100 µM
same,TGI,[46],> 100 µM
same,TGI,[47],> 100 µM
same,TGI,[48],> 100 µM
same,TGI,[49],> 100 µM
same,TGI,[50],> 100 µM
same,TGI,[51],> 100 µM
same,TGI,[52],> 100 µM
same,TGI,[53],> 100 µM
COc1ccc(/C=C2/SC(c3ccccc3)N(NC(=O)CCCCCCCCC(=O)NN3C(=O)/C(=C\c4ccc(OC)c(OC)c4)SC3c3ccccc3)C2=O)cc1OC (configuration not stated),TGI,[1],> 100 µM
same,TGI,[2],> 100 µM
same,TGI,[3],> 100 µM
same,TGI,[4],> 100 µM
same,TGI,[5],98.7 µM
same,TGI,[6],> 100 µM
same,TGI,[7],62 µM
same,TGI,[8],> 100 µM
same,TGI,[9],94.8 µM
same,TGI,[55],> 100 µM
same,TGI,[56],> 100 µM
same,TGI,[10],> 100 µM
same,TGI,[11],> 100 µM
same,TGI,[12],79.1 µM
same,TGI,[13],> 100 µM
same,TGI,[14],> 100 µM
same,TGI,[15],> 100 µM
same,TGI,[16],> 100 µM
same,TGI,[17],> 100 µM
same,TGI,[18],> 100 µM
same,TGI,[19],> 100 µM
same,TGI,[20],> 100 µM
same,TGI,[21],> 100 µM
same,TGI,[22],> 100 µM
same,TGI,[23],60.5 µM
same,TGI,[24],66.3 µM
same,TGI,[25],91.3 µM
same,TGI,[26],> 100 µM
same,TGI,[27],> 100 µM
same,TGI,[57],> 100 µM
same,TGI,[28],> 100 µM
same,TGI,[29],98.3 µM
same,TGI,[30],72.9 µM
same,TGI,[31],> 100 µM
same,TGI,[33],76.2 µM
same,TGI,[34],> 100 µM
same,TGI,[35],> 100 µM
same,TGI,[37],> 100 µM
same,TGI,[59],> 100 µM
same,TGI,[38],> 100 µM
same,TGI,[39],> 100 µM
same,TGI,[40],> 100 µM
same,TGI,[41],> 100 µM
same,TGI,[44],> 100 µM
same,TGI,[45],> 100 µM
same,TGI,[46],> 100 µM
same,TGI,[47],> 100 µM
same,TGI,[48],71.8 µM
same,TGI,[50],72.6 µM
same,TGI,[51],> 100 µM
same,TGI,[52],61.7 µM
same,TGI,[53],> 100 µM
COC1(C)OC[C@@]2(C)OC(C)C1(C)C2O[Si](C(C)C)(C(C)C)C(C)C (some centres not stated),TGI,[1],> 100 µM
same,TGI,[2],> 100 µM
same,TGI,[3],> 100 µM
same,TGI,[4],45.2 µM
same,TGI,[5],> 100 µM
same,TGI,[6],96.7 µM
same,TGI,[7],82.3 µM
same,TGI,[8],50 µM
same,TGI,[54],40.4 µM
same,TGI,[9],70.9 µM
same,TGI,[55],69.4 µM
same,TGI,[56],> 100 µM
same,TGI,[10],80.2 µM
same,TGI,[11],> 100 µM
same,TGI,[12],> 100 µM
same,TGI,[13],> 100 µM
same,TGI,[14],48 µM
same,TGI,[15],45.8 µM
same,TGI,[16],> 100 µM
same,TGI,[17],47.6 µM
same,TGI,[18],71.3 µM
same,TGI,[20],88 µM
same,TGI,[21],62.9 µM
same,TGI,[22],32.3 µM
same,TGI,[23],50.9 µM
same,TGI,[24],63 µM
same,TGI,[25],> 100 µM
same,TGI,[26],> 100 µM
same,TGI,[27],> 100 µM
same,TGI,[57],> 100 µM
same,TGI,[28],> 100 µM
same,TGI,[29],85.7 µM
same,TGI,[30],47.3 µM
same,TGI,[31],32.9 µM
same,TGI,[32],54.6 µM
same,TGI,[33],> 100 µM
same,TGI,[34],40.8 µM
same,TGI,[35],> 100 µM
same,TGI,[36],42.6 µM
same,TGI,[37],58.4 µM
same,TGI,[58],86.8 µM
same,TGI,[59],> 100 µM
same,TGI,[38],> 100 µM
same,TGI,[39],> 100 µM
same,TGI,[40],> 100 µM
same,TGI,[41],71.8 µM
same,TGI,[42],51 µM
same,TGI,[43],52.5 µM
same,TGI,[44],60.3 µM
same,TGI,[45],> 100 µM
same,TGI,[46],> 100 µM
same,TGI,[47],> 100 µM
same,TGI,[48],62.2 µM
same,TGI,[49],59.1 µM
same,TGI,[50],89.3 µM
same,TGI,[51],62.5 µM
same,TGI,[52],78.5 µM
same,TGI,[53],57 µM
CC(C)Sc1nncc(/C(N)=N/O)n1,TGI,[1],> 100 µM
same,TGI,[2],> 100 µM
same,TGI,[3],> 100 µM
same,TGI,[5],> 100 µM
same,TGI,[6],> 100 µM
same,TGI,[7],> 100 µM
same,TGI,[8],> 100 µM
same,TGI,[9],> 100 µM
same,TGI,[55],> 100 µM
same,TGI,[56],> 100 µM
same,TGI,[10],> 100 µM
same,TGI,[11],> 100 µM
same,TGI,[12],> 100 µM
same,TGI,[13],> 100 µM
same,TGI,[14],> 100 µM
same,TGI,[15],> 100 µM
same,TGI,[16],> 100 µM
same,TGI,[17],> 100 µM
same,TGI,[18],> 100 µM
same,TGI,[19],> 100 µM
same,TGI,[20],> 100 µM
same,TGI,[21],> 100 µM
same,TGI,[22],> 100 µM
same,TGI,[23],> 100 µM
same,TGI,[24],> 100 µM
same,TGI,[25],> 100 µM
same,TGI,[26],> 100 µM
same,TGI,[27],> 100 µM
same,TGI,[57],> 100 µM
same,TGI,[28],> 100 µM
same,TGI,[29],> 100 µM
same,TGI,[30],> 100 µM
same,TGI,[31],> 100 µM
same,TGI,[32],> 100 µM
same,TGI,[33],> 100 µM
same,TGI,[34],> 100 µM
same,TGI,[35],> 100 µM
same,TGI,[36],> 100 µM
same,TGI,[37],> 100 µM
same,TGI,[59],> 100 µM
same,TGI,[38],> 100 µM
same,TGI,[39],> 100 µM
same,TGI,[40],> 100 µM
same,TGI,[41],> 100 µM
same,TGI,[42],> 100 µM
same,TGI,[43],> 100 µM
same,TGI,[44],> 100 µM
same,TGI,[45],> 100 µM
same,TGI,[46],> 100 µM
same,TGI,[47],> 100 µM
same,TGI,[48],> 100 µM
same,TGI,[49],> 100 µM
same,TGI,[50],> 100 µM
same,TGI,[51],> 100 µM
same,TGI,[52],> 100 µM
same,TGI,[53],> 100 µM
